Usually IC50 stands for the concentration that gives 50% inhibition. Higher therefore signals a need for much substance.

Molecules are shown by their SMILES.

T1 sequence (P30550 whole entry): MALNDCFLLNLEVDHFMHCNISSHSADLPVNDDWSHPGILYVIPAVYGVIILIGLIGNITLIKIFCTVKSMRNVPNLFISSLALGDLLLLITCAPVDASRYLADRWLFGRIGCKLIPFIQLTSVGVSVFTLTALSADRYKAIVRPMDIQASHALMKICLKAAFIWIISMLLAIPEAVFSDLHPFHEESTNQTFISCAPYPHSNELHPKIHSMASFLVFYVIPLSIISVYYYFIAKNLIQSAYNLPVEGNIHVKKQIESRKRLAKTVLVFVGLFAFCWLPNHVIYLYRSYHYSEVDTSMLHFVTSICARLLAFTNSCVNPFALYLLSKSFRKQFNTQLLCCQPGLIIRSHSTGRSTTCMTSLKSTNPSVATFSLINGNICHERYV

One experiment has as its target T1, human GRP receptor (BB2) (Homo sapiens, UniProt P30550).
T1 construct: expressed in transfected cells
As to the kind of experiment: BB2 binding assay ([125I][Tyr4]bombesin, CHO-K1 cell membranes). The note with it: Table 3; N-acyl derivatives. The procedure: In the following experiments, measurement of BB1 and BB2 binding was as follows. […] The final pellet was resuspended in assay buffer to a final cell concentration of 1.5 × 10^5/mL. […] Nonspecific binding was defined by 1µM bombesin. […] Radioactivity bound was determined using a gamma counter.
All competition data was analysed using nonlinear regression utilizing iterative curve-plotting procedures in Prism® (GraphPad Software Inc., San Diego, USA).
Take `C[C@@](Cc1c[nH]c2ccccc12)(NC(=O)c1cnc2ccccc2n1)C(=O)NCC1(c2ccccn2)CCCCC1` [Example 78, Quinoxaline-2-carboxylic acid {(S)-2-(1H-indol-3-yl)-1-methyl-1-[(1-pyridin-2-yl-cyclohexylmethyl)-carbamoyl]-ethyl}-amide]: the IC50 is over 10 µM.

Compound `C[C@@](Cc1c[nH]c2ccccc12)(NC(=O)c1ccco1)C(=O)NCC1(c2ccccn2)CCCCC1` [Example 60, Furan-2-carboxylic acid {(S)-2-(1H-indol-3-yl)-1-methyl-1-[(1-pyridin-2-yl-cyclohexylmethyl)-carbamoyl]-ethyl}-amide] had an IC50 of over 10 µM. `Cc1cc(C(=O)N[C@@](C)(Cc2c[nH]c3ccccc23)C(=O)NCC2(c3ccccn3)CCCCC2)no1` [Example 62, 5-Methyl-isoxazole-3-carboxylic acid {(S)-2-(1H-indol-3-yl)-1-methyl-1-[(1-pyridin-2-yl-cyclohexylmethyl)-carbamoyl]-ethyl}-amide] gave an IC50 of over 10 µM.

The experiment is the same for the next values; noted with them: Table 5; N-terminal urethane derivatives.
Compound `C[C@@](Cc1c[nH]c2ccccc12)(NC(=O)OCc1ccc(Cl)cc1Cl)C(=O)NCC1(c2ccccn2)CCCCC1` [Example 104, {(S)-2-(1H-Indol-3-yl)-1-methyl-1-[(1-pyridin-2-yl-cyclohexylmethyl)-carbamoyl]-ethyl}-carbamic acid 2,4-dichloro-benzyl ester] yielded an IC50 of over 10 µM.

Staying with this experiment, now noted: Table 7; N-terminal sulfonamide derivatives.
`C[C@@](Cc1c[nH]c2ccccc12)(NS(=O)(=O)c1ccc(S(C)(=O)=O)cc1)C(=O)NCC1(c2ccccn2)CCCCC1` [Example 163, (S)-3-(1H-Indol-3-yl)-2-(4-methanesulfonyl-benzenesulfonylamino)-2-methyl-N-(1-pyridin-2-yl-cyclohexylmethyl)-propionamide]: the IC50 was over 10 µM.

In the case of `Cc1ccc(S(=O)(=O)N[C@@](C)(Cc2c[nH]c3ccccc23)C(=O)NCC2(c3ccccn3)CCCCC2)cc1` [Example 112, (S)-3-(1H-Indol-3-yl)-2-methyl-N-(1-pyridin-2-yl-cyclohexylmethyl)-2-(toluene-4-sulfonylamino)-propionamide], the IC50 is over 10 µM. Take `CC(C)(C)c1ccc(S(=O)(=O)N[C@@](C)(Cc2c[nH]c3ccccc23)C(=O)NCC2(c3ccccn3)CCCCC2)cc1` [Example 164, (S)-2-(4-tert-Butyl-benzenesulfonylamino)-3-(1H-indol-3-yl)-2-methyl-N-(1-pyridin-2-yl-cyclohexylmethyl)-propionamide]: the IC50 is over 10 µM. Take `C[C@@](Cc1c[nH]c2ccccc12)(NS(=O)(=O)c1ccccc1F)C(=O)NCC1(c2ccccn2)CCCCC1` [Example 114, (S)-2-(2-Fluorobenzenesulfonylamino)-3-(1H-indol-3-yl)-2-methyl-N-(1-pyridin-2-yl-cyclohexylmethyl)-propionamide]: the half-inhibitory concentration (IC50) was over 10 µM. The compound `Cc1nc(S(=O)(=O)N[C@@](C)(Cc2c[nH]c3ccccc23)C(=O)NCC2(c3ccccn3)CCCCC2)cn1C` [Example 144, (S)-2-(1,2-Dimethyl-1H-imidazole-4-sulfonylamino)-3-(1H-indol-3-yl)-2-methyl-N-(1-pyridin-2-yl-cyclohexylmethyl)-propionamide] came in with an IC50 of over 10 µM. Same read-out and setting: the result for `C[C@@](Cc1c[nH]c2ccccc12)(NS(=O)(=O)c1ccc(Cl)c(Cl)c1)C(=O)NCC1(c2ccccn2)CCCCC1` [Example 125, (S)-2-(3,4-Dichloro-benzenesulfonylamino)-3-(1H-indol-3-yl)-2-methyl-N-(1-pyridin-2-yl-cyclohexylmethyl)-propionamide] reads over 10 µM; that for `C[C@@](Cc1c[nH]c2ccccc12)(NS(=O)(=O)c1cccc(C#N)c1)C(=O)NCC1(c2ccccn2)CCCCC1` [Example 143, (S)-2-(3-Cyano-benzenesulfonylamino)-3-(1H-indol-3-yl)-2-methyl-N-(1-pyridin-2-yl-cyclohexylmethyl)-propionamide], over 10 µM. As for `C[C@@](Cc1c[nH]c2ccccc12)(NS(=O)(=O)c1ccc(OC(F)(F)F)cc1)C(=O)NCC1(c2ccccn2)CCCCC1` [Example 151, (S)-3-(1H-Indol-3-yl)-2-methyl-N-(1-pyridin-2-yl-cyclohexylmethyl)-2-(4-trifluoromethoxy-benzenesulfonylamino)-propion amide], the IC50 is over 10 µM. Regarding `CCCCc1ccc(S(=O)(=O)N[C@@](C)(Cc2c[nH]c3ccccc23)C(=O)NCC2(c3ccccn3)CCCCC2)cc1` [Example 168, (S)-2-(4-Butyl-benzenesulfonylamino)-3-(1H-indol-3-yl)-2-methyl-N-(1-pyridin-2-yl-cyclohexylmethyl)-propionamide], the IC50 is over 10 µM. Take `COc1cc(C)ccc1S(=O)(=O)N[C@@](C)(Cc1c[nH]c2ccccc12)C(=O)NCC1(c2ccccn2)CCCCC1` [Example 159, (S)-3-(1H-Indol-3-yl)-2-(2-methoxy-4-methyl-benzenesulfonylamino)-2-methyl-N-(1-pyridin-2-yl-cyclohexylmethyl)-propionamide]: the IC50 is over 10 µM. Take `C[C@@](Cc1c[nH]c2ccccc12)(NS(=O)(=O)c1ccc(Cl)s1)C(=O)NCC1(c2ccccn2)CCCCC1` [Example 128, (S)-2-(5-Chloro-thiophene-2-sulfonylamino)-3-(1H-indol-3-yl)-2-methyl-N-(1-pyridin-2-yl-cyclohexylmethyl)-propionamide]: the IC50 is over 10 µM. For the compound `C[C@@](Cc1c[nH]c2ccccc12)(NS(=O)(=O)c1ccc([N+](=O)[O-])cc1[N+](=O)[O-])C(=O)NCC1(c2ccccn2)CCCCC1` [Example 162, (S)-2-(2,4-Dinitro-benzenesulfonylamino)-3-(1H-indol-3-yl)-2-methyl-N-(1-pyridin-2-yl-cyclohexylmethyl)-propionamide], the IC50 was over 10 µM. `C[C@@](Cc1c[nH]c2ccccc12)(NS(=O)(=O)c1ccc(S(=O)(=O)c2ccccc2)s1)C(=O)NCC1(c2ccccn2)CCCCC1` [Example 150, (S)-2-(5-Benzenesulfonyl-thiophene-2-sulfonylamino)-3-(1H-indol-3-yl)-2-methyl-N-(1-pyridin-2-yl-cyclohexylmethyl)-propionamide] returned an IC50 of over 10 µM. Consider `C[C@@](Cc1c[nH]c2ccccc12)(NS(=O)(=O)Cc1ccccc1[N+](=O)[O-])C(=O)NCC1(c2ccccn2)CCCCC1` [Example 142, (S)-3-(1H-Indol-3-yl)-2-methyl-2-(2-nitro-phenylmethanesulfonylamino)-N-(1-pyridin-2-yl-cyclohexylmethyl)-propionamide], for which the IC50 was over 10 µM.

`C[C@@](Cc1c[nH]c2ccccc12)(NS(=O)(=O)c1ccc2ccccc2c1)C(=O)NCC1(c2ccccn2)CCCCC1` [Example 118, (S)-3-(1H-Indol-3-yl)-2-methyl-2-(naphthalene-2-sulfonylamino)-N-(1-pyridin-2-yl-cyclohexylmethyl)-propionamide] returned an IC50 of over 10 µM. For `C[C@@](Cc1c[nH]c2ccccc12)(NS(=O)(=O)c1ccc(C#N)cc1)C(=O)NCC1(c2ccccn2)CCCCC1` [Example 133, (S)-2-(4-Cyano-benzenesulfonylamino)-3-(1H-indol-3-yl)-2-methyl-N-(1-pyridin-2-yl-cyclohexylmethyl)-propionamide], the IC50 was over 10 µM. Still for that read-out and setting: the result for `COC(=O)c1ccccc1S(=O)(=O)N[C@@](C)(Cc1c[nH]c2ccccc12)C(=O)NCC1(c2ccccn2)CCCCC1` [Example 155, 2-{(S)-2-(1H-Indol-3-yl)-1-methyl-1-[(1-pyridin-2-yl-cyclohexylmethyl)-carbamoyl]-ethylsulfamoyl} -benzoic acid methyl ester] reads over 10 µM. `C[C@@](Cc1c[nH]c2ccccc12)(NS(=O)(=O)c1ccc([N+](=O)[O-])cc1)C(=O)NCC1(c2ccccn2)CCCCC1` [Example 123, (S)-3-(1H-Indol-3-yl)-2-methyl-2-(4-nitro-benzenesulfonylamino)-N-(1-pyridin-2-yl-cyclohexylmethyl)-propionamide]: the IC50 was over 10 µM. The same measure, in the same setting: for `CN(C)c1cccc2c(S(=O)(=O)N[C@@](C)(Cc3c[nH]c4ccccc34)C(=O)NCC3(c4ccccn4)CCCCC3)cccc12` [Example 117, (S)-2-(5-Dimethylamino-naphthalene-1-sulfonylamino)-3-(1H-indol-3-yl)-2-methyl-N-(1-pyridin-2-yl-cyclohexylmethyl)-propionamide] the value was over 10 µM.

As to `C[C@@](Cc1c[nH]c2ccccc12)(NS(=O)(=O)c1cccc2nsnc12)C(=O)NCC1(c2ccccn2)CCCCC1` [Example 137, (S)-2-(Benzo[1,2,5]thiadiazole-4-sulfonylamino)-3-(1H-indol-3-yl)-2-methyl-N-(1-pyridin-2-yl-cyclohexylmethyl)-propionamide], the IC50 was over 10 µM. Regarding `COC(=O)c1sccc1S(=O)(=O)N[C@@](C)(Cc1c[nH]c2ccccc12)C(=O)NCC1(c2ccccn2)CCCCC1` [Example 140, 3-{(S)-2-(1H-Indol-3-yl)-1-methyl-1-[(1-pyridin-2-yl-cyclohexylmethyl)-carbamoyl]-ethylsulfamoyl}-thiophene-2-carboxylic acid methyl ester], the IC50 is over 10 µM. On the same count and under the same terms, the result for `Cc1nn(C)c(Cl)c1S(=O)(=O)N[C@@](C)(Cc1c[nH]c2ccccc12)C(=O)NCC1(c2ccccn2)CCCCC1` [Example 135, (S)-2-(5-Chloro-1,3-dimethyl-1H-pyrazole-4-sulfonylamino)-3-(1H-indol-3-yl)-2-methyl-N-(1-pyridin-2-yl-cyclohexylmethyl)-propionamide] reads over 10 µM; that for `C[C@@](Cc1c[nH]c2ccccc12)(NS(=O)(=O)c1ccc(C(F)(F)F)cc1)C(=O)NCC1(c2ccccn2)CCCCC1` [Example 127, (S)-3-(1H-Indol-3-yl)-2-methyl-N-(1-pyridin-2-yl-cyclohexylmethyl)-2-(4-trifluoromethyl-benzenesulfonylamino)-propionamide], over 10 µM.
